Patent US20230071840A1, “HETEROCYCLIC GLP-1 AGONISTS” (Gasherbrum Bio, Inc., priority 2020, published 2023)

Each compound was assayed against GLP-1 Receptor (Homo sapiens, UniProt P43220) (assay: GLP-1R agonist cAMP stimulation assay (HEK293/GLP1R/CRE-LUC cells, cAMP dynamic 2 kit)). Settings: HEK293/CRE-Luc cell line stably expressing the GLP-1 Receptor; 30 min incubation at 37° C.; read-out: GLP1R cAMP Stimulation DR: EC50.
Format: cell-based
Description: Activation of GLP-1 receptor is known to stimulate cyclic AMP (cAMP) production in cells which indicates primary coupling to the Gas subunit of the G protein heterotrimeric complex.
To optimize functional activity directed toward Gas coupling, a HEK293/CRE-Luc cell line developed by HDB stably expressing the GLP-1 Receptor was used. […] Seal the plate and incubate at 37° C. with 5% CO2 for 30 min.
After incubation the cAMP assay signal was generated using cAMP dynamic 2 Kit (Cisbio). 5 μL cAMP-d2 working solution was added to each well, followed with 5 μL Anti-cAMP antibody-cryptate working solution added to each well using ThermoFisher Multidrop Combi. Incubate at room temperature for 1 hour protected from light.
% Activity=[…]×(mean RLU of test sample−mean RLU of vehicle control)/(mean RLU of MAX control−mean RLU of vehicle control))

Chain of GLP-1 Receptor (P43220 24-463, species assumed): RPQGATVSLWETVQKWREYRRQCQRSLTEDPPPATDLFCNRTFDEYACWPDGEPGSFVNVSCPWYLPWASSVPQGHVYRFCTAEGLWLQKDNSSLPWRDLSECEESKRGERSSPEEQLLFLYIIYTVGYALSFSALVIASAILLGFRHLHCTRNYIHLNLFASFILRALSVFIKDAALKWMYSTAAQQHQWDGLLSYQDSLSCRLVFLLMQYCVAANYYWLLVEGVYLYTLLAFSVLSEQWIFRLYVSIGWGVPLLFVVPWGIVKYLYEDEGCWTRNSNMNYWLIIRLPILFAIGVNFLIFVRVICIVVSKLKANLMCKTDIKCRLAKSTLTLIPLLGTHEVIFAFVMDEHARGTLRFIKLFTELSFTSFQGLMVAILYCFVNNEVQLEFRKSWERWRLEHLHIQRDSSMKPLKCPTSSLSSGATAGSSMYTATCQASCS

| SMILES | EC50 [nM] |
| --- | --- |
| O=C(O)c1ccc2nc(Cc3ccc(Oc4nc(Cc5ccc(Cl)cc5)ncc4F)cc3F)n(C[C@@H]3CCO3)c2n1 [Compound 190a, 2-{[4-({2-[(4-chlorophenyl)methyl]-5-fluoropyrimidin-4-yl}oxy)-2-fluorophenyl]methyl}-3-{[(2S)-oxetan-2-yl]methyl}-3H-imidazo[4,5-b]pyridine-5-carboxylic acid] | 0.41 |
| O=C(O)c1ccc2nc(CN3CCC(Oc4nc(Cc5ccc(Cl)cc5)ncc4F)CC3)n(C[C@H]3CCOC3)c2n1 [Compound 197a, (R)-2-((4-((2-(4-chlorobenzyl)-5-fluoropyrimidin-4-yl)oxy)piperidin-1-yl)methyl)-3-((tetrahydrofuran-3-yl)methyl)-3H-imidazo[4,5-b]pyridine-5-carboxylic acid] | 2.5 |
| CC(=O)Nc1ccc2nc(CN3CCC(Oc4cccc(Cc5ccc(Cl)cc5F)n4)CC3)n(C[C@@H]3CCO3)c2c1 [Compound 134a, N-(2-{[4-({6-[(4-chloro-2-fluorophenyl)methyl]pyridin-2-yl}oxy)piperidin-1-yl]methyl}-1-{[(2S)-oxetan-2-yl]methyl}-1H-1,3-benzodiazol-6-yl)acetamide] | 58 |
| O=C(O)c1ccc2nc(C[C@H]3CC[C@H](Oc4nc(Cc5ccc(Cl)cc5)ncc4F)CC3)n(C[C@@H]3CCO3)c2n1 [Compound 188a, 3-{[(2S)-oxetan-2-yl]methyl}-2-{[trans-4-({2-[(4-chlorophenyl)methyl]-5-fluoropyrimidin-4-yl}oxy)cyclohexyl]methyl}-3H-imidazo[4,5-b]pyridine-5-carboxylic acid] | 0.045 |

Continued by falling EC50, values first:

| EC50 [nM] | SMILES |
| --- | --- |
| 2.9 | CCOCCn1c(CN2CCC(Oc3ccnc(Cc4ccc(Cl)cc4)n3)CC2)nc2ccc(C(=O)O)nc21 [Compound 194, 2-((4-((2-(4-chlorobenzyl)pyrimidin-4-yl)oxy)piperidin-1-yl)methyl)-3-(2-ethoxyethyl)-3H-imidazo[4,5-b]pyridine-5-carboxylic acid] |
| 2.3 | Cn1c(C[C@H]2CC[C@H](Oc3ccnc(Cc4ccc(Cl)cc4)n3)CC2)nc2ccc(C(=O)O)nc21 [Compound 180a, 3-methyl-2-{[trans-4-({2-[(4-chlorophenyl)methyl]pyrimidin-4-yl}oxy)cyclohexyl]methyl}-3H-imidazo[4,5-b]pyridine-5-carboxylic acid] |
| 1.7 | O=C(O)c1ccc2nc(CN3CCC(Oc4cc(Cc5ccc(Cl)cc5F)ccc4F)CC3)n(C[C@@H]3CCO3)c2n1 [Compound 114a, 2-[(4-{5-[(4-chloro-2-fluorophenyl)methyl]-2-fluorophenoxy}piperidin-1-yl)methyl]-3-{[(2S)-oxetan-2-yl]methyl}-3H-imidazo[4,5-b]pyridine-5-carboxylic acid] |
| 1.3 | O=C(O)c1ccc2nc(Cc3ccc(Oc4ccnc(Cc5ccc(Cl)cc5)n4)cc3)n(C[C@@H]3CCO3)c2c1 [Compound 187a, 2-{[4-({2-[(4-chlorophenyl)methyl]pyrimidin-4-yl}oxy)phenyl]methyl}-1-{[(2S)-oxetan-2-yl]methyl}-1H-1,3-benzodiazole-6-carboxylic acid] |
| 0.29 | O=C(O)c1ccc2nc(CN3CCC(Oc4nc(Cc5ccc(Cl)cc5F)ccc4F)CC3)n(C[C@@H]3CCO3)c2n1 [Compound 111a, 2-{[4-({6-[(4-chloro-2-fluorophenyl)methyl]-3-fluoropyridin-2-yl}oxy)piperidin-1-yl]methyl}-3-{[(2S)-oxetan-2-yl]methyl}-3H-imidazo[4,5-b]pyridine-5-carboxylic acid] |
| 0.19 | O=C(O)c1ccc2nc(CN3CCC(Oc4ccnc(Cc5ccc(Cl)cc5)n4)CC3)n(Cc3cn[nH]c3)c2n1 [Compound 193, 3-((1H-pyrazol-4-yl)methyl)-2-((4-((2-(4-chlorobenzyl)pyrimidin-4-yl)oxy)piperidin-1-yl)methyl)-3H-imidazo[4,5-b]pyridine-5-carboxylic acid] |
